Assay results reported in publication PMC9944328 (Nature Communications, 2023).

Tested on: SSTR2 mutants
Test: SSTRs Gi-mediated cAMP inhibition, GloSensor, HEK293, 5 μM forskolin, 15 min room temperature (SSTR2 mutants)
Type: cell-based, human
Settings: for Fold of WT: Gi signaling EC50
Protocol: The levels of the intracellular 3′, 5′-cyclic AMP (cAMP) were measured by the GloSensor cAMP assay (Promega) as described in the previous studies[28],[41] which has been widely used. The human full-length SSTRs and mutants were cloned into the pcDNA3.1+ vector with a HA signal sequence followed by a Flag tag at the N-terminus. HEK293 cells (ATCC, CRL-1573) were seeded into 6-well microplates at a density of 1.0 × 10^6 cells/well and cultured for 24 h at 37 °C with 5% CO2. Cells were then co-transfected with SSTR wild-type or mutants and GloSensor plasmids. After 24 h of transfection, the cells were dissociated with TrypLE™ Express Enzyme (1X) (Thermo Fisher Scientific) and collected by centrifugation at 500 × g for 5 min. Then the collected cells were suspended in Hank’s balanced salt solution [HBSS (Thermo Fisher Scientific)] supplemented with […] (YEASEN), and then the suspension cells were seeded into 96-well plates with 90 μl/well. After incubating at room temperature for 40 min, 5 μM forskolin and ligands diluted in HBSS were added to each well and the plates were incubated at room temperature for 15 min. […] were measured using the Synergy H1 microplate reader (BioTek) and the data presented are means of at least three independent experiments.

[1] = Gi signaling, SSTR2 D295(7.36)A, n=3
[2] = Gi signaling, SSTR2 F127(3.37)A, n=3
[3] = Gi signaling, SSTR2 F208(5.38)A, n=3
[4] = Gi signaling, SSTR2 F265(6.44)A, n=3
[5] = Gi signaling, SSTR2 F294(7.35)A, n=3
[6] = Gi signaling, SSTR2 I130(3.40)A, n=3
[7] = Gi signaling, SSTR2 I195(45.52)A, n=3
[8] = Gi signaling, SSTR2 I284ECL3A, n=3
[9] = Gi signaling, SSTR2 K291(7.32)A, n=3
[10] = Gi signaling, SSTR2 L99(2.60)A, n=3
[11] = Gi signaling, SSTR2 N276(6.55)A, n=3
[12] = Gi signaling, SSTR2 P220(5.50)A, n=3
[13] = Gi signaling, SSTR2 Q102(2.63)A, n=3
[14] = Gi signaling, SSTR2 T194(45.51)A, n=3
[15] = Gi signaling, SSTR2 V103(2.64)A, n=3
[16] = Gi signaling, SSTR2 W269(6.48)A, n=3
[17] = Gi signaling, SSTR2 Y50(1.39)A, n=3
[18] = Gi signaling, SSTR2 Y205(5.35)A, n=3
[19] = Gi signaling, SSTR2 Y302(7.43)A, n=3

SMILES: N#Cc1cccc(-c2ccc3ncc(-c4cc(F)cc(F)c4)c(N4CCC(N)CC4)c3c2)c1O [paltusotine]
- Fold of WT (SSTR2 Y50(1.39)A): 1.90
- Fold of WT (SSTR2 Y205(5.35)A): 0.26
- Fold of WT (SSTR2 Y302(7.43)A): 6.27
- EC50 [1]: 2.46 ± 1.67 nM
- Emax [1]: 107.80±3.11 %WT
- EC50 [2]: 1.02 ± 1.29 nM
- Emax [2]: 107.70±2.32 %WT
- EC50 [3]: 64.2 ± 2.53 nM
- Emax [3]: 91.78±2.89 %WT
- EC50 [4]: 11.9 ± 1.45 nM
- Emax [4]: 113.70±4.57 %WT
- EC50 (Gi signaling, SSTR2 F272A, n=3): 63.1 ± 4.1 nM
- Emax (Gi signaling, SSTR2 F272A, n=3): 57.21±2.64 %WT
- EC50 [5]: 2.64 ± 1.26 nM
- Emax [5]: 100.30±10.53 %WT
- EC50 [6]: 19 ± 2.64 nM
- Emax [6]: 116.50±4.76 %WT
- EC50 [7]: 83.4 ± 1.65 nM
- Emax [7]: 106.20±8.71 %WT
- EC50 [8]: 1.22 nM
- Emax [8]: 113.80±5.04 %WT
- EC50 [9]: 5.22 ± 8.67 nM
- Emax [9]: 97.49±6.65 %WT
- EC50 [10]: 17.1 ± 5.16 nM
- Emax [10]: 107.80±2.34 %WT
- EC50 [11]: 1.65 ± 3.51 nM
- Emax [11]: 89.08±4.63 %WT
- EC50 [12]: 3.22 ± 1.38 nM
- Emax [12]: 116.00±5.23 %WT
- EC50 [13]: 31 ± 6.59 nM
- Emax [13]: 97.26±5.45 %WT
- EC50 [14]: 97.7 ± 2.2 nM
- Emax [14]: 85.51±3.13 %WT
- EC50 [15]: 33 ± 2.87 nM
- Emax [15]: 87.33±6.38 %WT
- EC50 [16]: 0.44 nM
- Emax [16]: 98.94±12.38 %WT
- EC50 [17]: 3.6 ± 6.86 nM
- Emax [17]: 106.10±0.90 %WT
- EC50 [18]: 0.48 nM
- Emax [18]: 98.71±2.78 %WT
- EC50 [19]: 11.8 ± 3.12 nM
- Emax [19]: 55.80±2.34 %WT
- EC50 (I195A, run 1, best-fit): 83.4 nM
- LogEC50 (I195A, run 1, best-fit): -7.079
- EC50 (I195A, run 2, best-fit): 112 nM
- LogEC50 (I195A, run 2, best-fit): -6.952
- EC50 (I195A, run 3, best-fit): 54.8 nM
- LogEC50 (I195A, run 3, best-fit): -7.261
- Bottom (best-fit) (I195M, run 1): 2.531
- EC50 (I195M, run 1): 8.24 nM
- LogEC50 (I195M, run 1): -8.084
- Span (best-fit) (I195M, run 1): 94.08
- Top (best-fit) (I195M, run 1): 96.61
- Bottom (best-fit) (I195M, run 2): -2.367
- EC50 (I195M, run 2): 4.64 nM
- LogEC50 (I195M, run 2): -8.333
- Span (best-fit) (I195M, run 2): 106.3
- Top (best-fit) (I195M, run 2): 103.9
- EC50 (I284A, run 1, best-fit): 1.25 nM
- LogEC50 (I284A, run 1, best-fit): -8.902
- EC50 (I284A, run 2, best-fit): 1.14 nM
- LogEC50 (I284A, run 2, best-fit): -8.945
- EC50 (I284A, run 3, best-fit): 1.28 nM
- LogEC50 (I284A, run 3, best-fit): -8.894
- Bottom (best-fit value), cAMP inhibition (K291A-1 (run 1)): 1.006
- LogEC50 (best-fit value), cAMP inhibition (K291A-1 (run 1)): -8.362
- Span (best-fit value), cAMP inhibition (K291A-1 (run 1)): 92.81
- Top (best-fit value), cAMP inhibition (K291A-1 (run 1)): 93.82
- Bottom (best-fit value), cAMP inhibition (K291A-2 (run 2)): -4.234
- LogEC50 (best-fit value), cAMP inhibition (K291A-2 (run 2)): -8.83
- Span (best-fit value), cAMP inhibition (K291A-2 (run 2)): 114.6
- Top (best-fit value), cAMP inhibition (K291A-2 (run 2)): 110.4
- Bottom (best-fit value), cAMP inhibition (K291A-3 (run 3)): -10.93
- LogEC50 (best-fit value), cAMP inhibition (K291A-3 (run 3)): -8.158
- Span (best-fit value), cAMP inhibition (K291A-3 (run 3)): 99.18
- Top (best-fit value), cAMP inhibition (K291A-3 (run 3)): 88.26
- EC50 (L99A, run 1, best-fit): 6.78 nM
- LogEC50 (L99A, run 1, best-fit): -8.169
- EC50 (L99A, run 2, best-fit): 22.1 nM
- LogEC50 (L99A, run 2, best-fit): -7.655
- EC50 (L99A, run 3, best-fit): 22.4 nM
- LogEC50 (L99A, run 3, best-fit): -7.65
- Bottom (best-fit value), cAMP inhibition (N276A-1 (run 1)): -4.414
- LogEC50 (best-fit value), cAMP inhibition (N276A-1 (run 1)): -9.003
- Span (best-fit value), cAMP inhibition (N276A-1 (run 1)): 102.7
- Top (best-fit value), cAMP inhibition (N276A-1 (run 1)): 98.25
- Bottom (best-fit value), cAMP inhibition (N276A-2 (run 2)): -3.382
- LogEC50 (best-fit value), cAMP inhibition (N276A-2 (run 2)): -8.659
- Span (best-fit value), cAMP inhibition (N276A-2 (run 2)): 88.97
- Top (best-fit value), cAMP inhibition (N276A-2 (run 2)): 85.59
- Bottom (best-fit value), cAMP inhibition (N276A-3 (run 3)): -1.142
- LogEC50 (best-fit value), cAMP inhibition (N276A-3 (run 3)): -8.752
- Span (best-fit value), cAMP inhibition (N276A-3 (run 3)): 84.55
- Top (best-fit value), cAMP inhibition (N276A-3 (run 3)): 83.41
- Bottom (best-fit value) (P220A-1 (run 1)): 6.519
- LogEC50 (best-fit value) (P220A-1 (run 1)): -8.456
- Span (best-fit value) (P220A-1 (run 1)): 112
- Top (best-fit value) (P220A-1 (run 1)): 118.5
- Bottom (best-fit value) (P220A-2 (run 2)): 4.552
- LogEC50 (best-fit value) (P220A-2 (run 2)): -8.51
